The values that follow come from ChEMBL document CHEMBL5335860, “Imidazole Bioisostere Activators of Endopeptidase Neurolysin with Enhanced Potency and Metabolic Stability” (ACS Med Chem Lett, 2024).

In series [1] the target is T1, Neurolysin, mitochondrial (Homo sapiens, UniProt Q9BYT8). As to the kind of experiment: Activation of Nln (unknown origin) using Mca-Pro-Leu-Gly-Pro-D-Lys(DNP)- OH as substrate preincubated for 10 mins followed by substrate addition measured for 20 mins by fluorescence based assay.
Target sequence in this assay (Q9BYT8 whole entry): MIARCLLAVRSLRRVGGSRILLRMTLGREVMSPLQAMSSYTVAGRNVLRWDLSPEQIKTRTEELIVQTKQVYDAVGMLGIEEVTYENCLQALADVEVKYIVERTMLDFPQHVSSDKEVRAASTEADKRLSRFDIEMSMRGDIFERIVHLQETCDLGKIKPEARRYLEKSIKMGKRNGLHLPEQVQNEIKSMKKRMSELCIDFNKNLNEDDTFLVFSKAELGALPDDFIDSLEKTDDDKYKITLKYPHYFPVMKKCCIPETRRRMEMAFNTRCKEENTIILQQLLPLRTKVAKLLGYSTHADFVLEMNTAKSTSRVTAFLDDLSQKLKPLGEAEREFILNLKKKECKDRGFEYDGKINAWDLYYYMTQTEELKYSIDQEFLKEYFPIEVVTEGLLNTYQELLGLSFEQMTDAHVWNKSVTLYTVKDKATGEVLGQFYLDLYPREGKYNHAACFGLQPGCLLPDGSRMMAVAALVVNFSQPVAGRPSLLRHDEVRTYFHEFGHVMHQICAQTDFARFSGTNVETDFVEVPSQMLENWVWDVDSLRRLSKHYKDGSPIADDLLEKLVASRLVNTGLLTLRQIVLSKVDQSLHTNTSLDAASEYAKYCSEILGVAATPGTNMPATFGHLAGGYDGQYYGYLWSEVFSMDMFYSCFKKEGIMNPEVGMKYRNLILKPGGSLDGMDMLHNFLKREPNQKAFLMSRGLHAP
The target in series [2] is T1, Neurolysin, mitochondrial. As to the kind of experiment: Activation of Nln (unknown origin) using Mca-Pro-Leu-Gly-Pro-D-Lys(DNP)- OH as substrate preincubated for 10 mins followed by substrate addition measured for 20 mins by fluorescence based assay relative to control. The following applies: filed as activator, time 30.0 min.
Target sequence in this assay (Q9BYT8 38-704 limits assumed): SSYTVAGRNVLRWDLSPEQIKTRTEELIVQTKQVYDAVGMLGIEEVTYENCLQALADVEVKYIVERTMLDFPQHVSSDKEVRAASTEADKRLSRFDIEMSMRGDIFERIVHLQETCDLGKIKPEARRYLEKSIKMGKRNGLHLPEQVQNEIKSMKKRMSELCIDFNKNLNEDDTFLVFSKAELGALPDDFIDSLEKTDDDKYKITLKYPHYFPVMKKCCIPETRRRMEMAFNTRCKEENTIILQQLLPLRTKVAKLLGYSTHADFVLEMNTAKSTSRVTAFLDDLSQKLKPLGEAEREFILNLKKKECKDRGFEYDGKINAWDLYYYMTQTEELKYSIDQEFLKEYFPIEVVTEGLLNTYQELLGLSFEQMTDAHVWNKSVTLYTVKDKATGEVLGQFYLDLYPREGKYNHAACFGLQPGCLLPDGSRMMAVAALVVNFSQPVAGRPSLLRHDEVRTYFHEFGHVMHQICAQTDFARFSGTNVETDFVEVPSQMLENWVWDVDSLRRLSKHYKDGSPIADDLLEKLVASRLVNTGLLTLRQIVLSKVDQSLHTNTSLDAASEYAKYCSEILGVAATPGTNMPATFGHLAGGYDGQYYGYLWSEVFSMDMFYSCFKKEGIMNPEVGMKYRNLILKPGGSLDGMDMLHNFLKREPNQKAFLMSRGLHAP
A short description of series [3]: Permeability coefficient in co-culture of primary mouse astrocytes and immortalized mouse endothelial cells at 10 ug/ml by BBB assay. Type of series: ADME. The following applies: dose 10 µg/ml, read-out: Kp (converted).
Series [4] in a line: Drug concentration in brain of MCAO mouse model at 4 mg/kg, iv measured after 30 mins. Type of series: ADME, organism-based. The following applies: read-out: Ct.
Series [5] in a line: Elimination half life in MCAO mouse model at 4 mg/kg, iv. Type of series: ADME, organism-based. The following applies: in vivo, read-out: beta t1/2.
A short description of series [6]: Half life in mouse plasma at 500 ng/ml measured for 4 hrs by LC-MS/MS analysis. The class given is ADME, cell-free.
Series [7] is described as follows: Half life in mouse brain at 500 ng/ml measured for 4 hrs by LC-MS/MS analysis. The class given is ADME, tissue-based.
The target in series [8] is Thimet oligopeptidase (Homo sapiens) (UniProt P52888). As to the kind of experiment: Inhibition of recombinant THOP1 (unknown origin).
The target of series [9] is Angiotensin-converting enzyme (Homo sapiens) (UniProt P12821). Nature of the series: Inhibition of C-terminal 10-His-tagged recombinant human ACE (30 to 1261 residues) expressed in mouse myeloma cells. The following applies: Multiple myeloma cell.
In series [10] the target is Angiotensin-converting enzyme 2 (Homo sapiens) (UniProt Q9BYF1). Nature of the series: Inhibition of C-terminal polyhis-tagged recombinant human ACE2 (1 to 740 residues) expressed in HEK293 cells. Type of series: cell-based.
In series [11] the target is Neprilysin (Homo sapiens) (UniProt P08473). As to the kind of experiment: Inhibition of N-terminal polyhis-tagged recombinant human neprilysin (52 to 750 residues) expressed in HEK293 cells. The class given is cell-based.
In series [12] the target is Thimet oligopeptidase (Homo sapiens) (UniProt P52888). As to the kind of experiment: Inhibition of recombinant THOP1 (unknown origin) relative to control. The following applies: concentration not given here.
The target in series [13] is Angiotensin-converting enzyme (Homo sapiens) (UniProt P12821). Nature of the series: Inhibition of C-terminal 10-His-tagged recombinant human ACE (30 to 1261 residues) expressed in mouse myeloma cells relative to control. The note with it: concentration not given here.
The target of series [14] is Angiotensin-converting enzyme 2 (Homo sapiens) (UniProt Q9BYF1). As to the kind of experiment: Inhibition of C-terminal polyhis-tagged recombinant human ACE2 (1 to 740 residues) expressed in HEK293 cells relative to control. The class given is cell-based. The note with it: concentration not given here.
Series [15] has as its target Neprilysin (Homo sapiens) (UniProt P08473). Nature of the series: Inhibition of N-terminal polyhis-tagged recombinant human neprilysin (52 to 750 residues) expressed in HEK293 cells relative to control. The class given is cell-based. The following applies: concentration not given here.

Activity calls are given as the source filed them. The rule behind the calls is not given here. Peptide text beside a SMILES is read from it. * marks the point of attachment. NHPhenethyl = c1ccc(CCN*)cc1

Chain of Neprilysin (Homo sapiens) (P08473 whole entry, the tested form may be a part): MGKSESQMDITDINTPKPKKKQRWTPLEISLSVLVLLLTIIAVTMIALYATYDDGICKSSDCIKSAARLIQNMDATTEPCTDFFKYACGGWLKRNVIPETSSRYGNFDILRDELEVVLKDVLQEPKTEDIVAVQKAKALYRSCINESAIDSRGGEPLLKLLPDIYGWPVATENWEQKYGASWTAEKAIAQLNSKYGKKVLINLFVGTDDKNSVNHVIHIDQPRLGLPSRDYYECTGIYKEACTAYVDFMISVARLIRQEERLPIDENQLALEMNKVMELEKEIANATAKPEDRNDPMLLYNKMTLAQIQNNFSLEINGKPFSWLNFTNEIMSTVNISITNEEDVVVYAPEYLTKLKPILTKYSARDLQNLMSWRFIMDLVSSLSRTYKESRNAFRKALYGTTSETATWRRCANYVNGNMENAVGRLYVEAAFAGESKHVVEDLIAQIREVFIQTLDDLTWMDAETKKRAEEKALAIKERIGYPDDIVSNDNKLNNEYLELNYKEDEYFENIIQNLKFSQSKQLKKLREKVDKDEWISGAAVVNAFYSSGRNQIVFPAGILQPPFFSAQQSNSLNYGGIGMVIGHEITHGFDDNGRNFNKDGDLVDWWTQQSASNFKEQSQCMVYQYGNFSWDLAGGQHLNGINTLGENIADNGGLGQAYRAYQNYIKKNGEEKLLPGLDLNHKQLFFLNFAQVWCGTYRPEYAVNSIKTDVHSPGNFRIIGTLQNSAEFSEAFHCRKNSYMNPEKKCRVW
Chain of Angiotensin-converting enzyme 2 (Homo sapiens) (Q9BYF1 18-805 limits assumed): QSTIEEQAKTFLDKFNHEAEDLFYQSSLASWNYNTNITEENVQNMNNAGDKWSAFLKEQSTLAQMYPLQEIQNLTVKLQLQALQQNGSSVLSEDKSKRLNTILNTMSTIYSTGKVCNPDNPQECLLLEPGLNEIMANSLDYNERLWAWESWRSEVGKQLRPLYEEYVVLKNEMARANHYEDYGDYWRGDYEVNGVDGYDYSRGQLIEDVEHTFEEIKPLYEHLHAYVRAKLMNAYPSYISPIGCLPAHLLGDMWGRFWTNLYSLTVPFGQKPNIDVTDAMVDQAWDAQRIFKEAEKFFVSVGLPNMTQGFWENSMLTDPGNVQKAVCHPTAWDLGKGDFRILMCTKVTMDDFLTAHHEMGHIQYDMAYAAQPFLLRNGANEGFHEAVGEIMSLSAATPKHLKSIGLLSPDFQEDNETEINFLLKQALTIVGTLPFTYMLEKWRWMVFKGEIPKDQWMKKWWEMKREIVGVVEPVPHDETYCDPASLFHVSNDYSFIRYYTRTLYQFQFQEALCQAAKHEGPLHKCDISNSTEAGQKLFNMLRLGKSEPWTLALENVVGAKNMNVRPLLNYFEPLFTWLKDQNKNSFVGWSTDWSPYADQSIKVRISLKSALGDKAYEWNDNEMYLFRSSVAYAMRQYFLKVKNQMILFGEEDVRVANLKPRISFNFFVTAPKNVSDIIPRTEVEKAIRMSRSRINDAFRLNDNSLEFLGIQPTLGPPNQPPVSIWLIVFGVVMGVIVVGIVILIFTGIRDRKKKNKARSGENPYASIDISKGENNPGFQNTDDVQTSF
Chain of Angiotensin-converting enzyme (Homo sapiens) (P12821 whole entry, the tested form may be a part): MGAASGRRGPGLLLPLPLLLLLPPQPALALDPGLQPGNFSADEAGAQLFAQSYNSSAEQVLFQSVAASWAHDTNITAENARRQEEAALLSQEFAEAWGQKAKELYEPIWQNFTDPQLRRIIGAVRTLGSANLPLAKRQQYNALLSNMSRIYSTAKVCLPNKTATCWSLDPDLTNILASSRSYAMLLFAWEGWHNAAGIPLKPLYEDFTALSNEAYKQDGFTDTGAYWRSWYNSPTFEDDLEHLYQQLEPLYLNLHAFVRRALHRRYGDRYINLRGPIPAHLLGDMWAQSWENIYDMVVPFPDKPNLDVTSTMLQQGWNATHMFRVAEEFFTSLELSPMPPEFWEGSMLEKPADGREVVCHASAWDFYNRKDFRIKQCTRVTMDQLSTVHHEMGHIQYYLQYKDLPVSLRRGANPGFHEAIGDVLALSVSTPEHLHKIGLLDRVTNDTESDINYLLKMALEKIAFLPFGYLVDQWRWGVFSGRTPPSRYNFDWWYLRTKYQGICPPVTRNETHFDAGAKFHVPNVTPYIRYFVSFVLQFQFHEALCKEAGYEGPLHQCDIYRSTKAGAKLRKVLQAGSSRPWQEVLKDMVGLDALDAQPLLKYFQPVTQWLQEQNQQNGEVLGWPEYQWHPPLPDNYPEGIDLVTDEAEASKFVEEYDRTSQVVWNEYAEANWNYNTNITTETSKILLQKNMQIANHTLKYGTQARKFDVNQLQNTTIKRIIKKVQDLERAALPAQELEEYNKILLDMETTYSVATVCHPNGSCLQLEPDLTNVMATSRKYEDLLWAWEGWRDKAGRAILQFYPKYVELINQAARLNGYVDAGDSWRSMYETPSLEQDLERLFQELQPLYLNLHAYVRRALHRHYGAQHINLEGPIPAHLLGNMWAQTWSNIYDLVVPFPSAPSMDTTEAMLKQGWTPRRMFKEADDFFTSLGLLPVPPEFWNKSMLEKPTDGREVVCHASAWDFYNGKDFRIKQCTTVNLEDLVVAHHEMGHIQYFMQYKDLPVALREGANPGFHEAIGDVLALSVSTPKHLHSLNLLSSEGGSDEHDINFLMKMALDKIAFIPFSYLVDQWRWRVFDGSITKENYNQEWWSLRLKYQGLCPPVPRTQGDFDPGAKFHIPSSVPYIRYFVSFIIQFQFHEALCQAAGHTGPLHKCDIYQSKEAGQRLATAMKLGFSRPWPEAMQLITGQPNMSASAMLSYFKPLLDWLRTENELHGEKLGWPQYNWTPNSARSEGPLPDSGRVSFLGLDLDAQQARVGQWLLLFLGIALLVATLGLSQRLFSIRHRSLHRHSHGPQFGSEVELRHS
Chain of Thimet oligopeptidase (Homo sapiens) (P52888 whole entry, the tested form may be a part): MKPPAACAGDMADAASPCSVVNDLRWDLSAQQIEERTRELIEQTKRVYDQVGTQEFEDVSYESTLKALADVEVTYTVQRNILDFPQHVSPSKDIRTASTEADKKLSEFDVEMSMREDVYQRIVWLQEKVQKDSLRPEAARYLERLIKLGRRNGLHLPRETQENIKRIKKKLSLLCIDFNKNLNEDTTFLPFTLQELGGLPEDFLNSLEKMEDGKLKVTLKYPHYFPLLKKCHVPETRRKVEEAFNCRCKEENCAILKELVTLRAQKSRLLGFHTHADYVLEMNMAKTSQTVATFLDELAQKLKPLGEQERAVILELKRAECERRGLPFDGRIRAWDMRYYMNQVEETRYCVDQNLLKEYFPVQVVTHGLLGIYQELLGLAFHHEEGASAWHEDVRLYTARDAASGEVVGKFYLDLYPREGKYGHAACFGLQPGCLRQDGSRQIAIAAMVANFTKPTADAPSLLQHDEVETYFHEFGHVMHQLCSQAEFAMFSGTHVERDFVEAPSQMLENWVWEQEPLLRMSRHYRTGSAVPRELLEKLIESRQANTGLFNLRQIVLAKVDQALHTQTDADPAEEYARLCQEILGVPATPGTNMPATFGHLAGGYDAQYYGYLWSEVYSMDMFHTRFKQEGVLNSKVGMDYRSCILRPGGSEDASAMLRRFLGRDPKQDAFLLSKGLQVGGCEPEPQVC

Usually EC50 stands for the concentration needed to bring the measured effect to its halfway point. As a reminder, the Emax is the size of the effect at its maximum, as opposed to the concentration needed. Consider `N[C@@H](Cc1c[nH]cn1)C(=O)Nc1ccccc1`, for which the half-maximal effective concentration (EC50) in series [1] (read-out: EC50) was 252 µM. The compound also had a maximum response (Emax) in [2] of 467%.
On the same counts, the results for `N[C@@H](Cc1c[nH]cn1)C(=O)NCCc1ccc(Cl)cc1` are 25 µM and 404%.
In the case of `CN(Cc1cccc2ccccc12)C(=O)[C@@H](N)Cc1c[nH]cn1`, in series [1] (read-out: EC50), the concentration giving a half-maximal response (EC50) is 3.8 µM. Moreover, the maximal effect (Emax) in series [2] stood at 345%.
On the same counts, the results for `N[C@@H](Cc1c[nH]cn1)C(=O)N1CCc2ccccc2C1` are 32.6 µM and 380%.
As to `N[C@@H](Cc1c[nH]cn1)C(=O)Nc1cccc2cccnc12`, the EC50 in [1] (read-out: EC50) was determined as 7 µM. For the same compound, the Papp at 10 ug/ml in series [3] is 19 ×10⁻⁶ cm/s. Besides, the concentration at 0.5 h in series [4] was determined as 260 nM. Further, the half-life in series [5] came out at 0.5 h.
On to `N[C@@H](Cc1c[nH]cn1)C(=O)N(CCc1c[nH]c2ccccc12)Cc1ccccc1`, for which the EC50 in series [1] (read-out: EC50) was 5.2 µM. The same compound gave a maximal effect (Emax) in [2] of 307%.
On the same counts, the results for `N[C@@H](Cc1c[nH]cn1)C(=O)N[C@@H](Cc1ccccc1)C(=O)NCCc1ccccc1` (H-His-Phe-NHPhenethyl) are 5.4 µM and 178%.
On the same counts, the results for `CN(Cc1cccc2ccccc12)C(=O)[C@H](N)Cc1c[nH]cn1` are 3.6 µM and 324%.
As for `N[C@@H](Cc1c[nH]cn1)C(=O)NCC(=O)c1ccc(Cl)cc1`, the half-maximal effective concentration (EC50) in series [1] (read-out: EC50) was found to be 33.7 µM. In series [2], the Emax came out at 130%.
For orientation: inhibition means the change of the read-out against control, counted positive when it falls. For `N[C@H](Cc1c[nH]cn1)c1ncc(-c2ccc(Cl)cc2)[nH]1`, the 50% effective concentration (EC50) in [1] (read-out: EC50) worked out at 2 µM. Further, the figures for the half-life at 500 ng/ml in [6] and in series [7] were 8.15 h and 1.81 h, respectively. The Papp at 10 ug/ml in [3] is 6 ×10⁻⁶ cm/s. Besides, in series [2], the maximal effect (Emax) came out at 282%. The inhibition entry in series [8], in series [9], in series [10] and in series [11] was “inactive” throughout.
On to `N[C@@H](Cc1c[nH]cn1)c1ncc(-c2ccc3ccccc3c2)[nH]1`, for which, in [1] (read-out: EC50), the EC50 amounted to 5.5 µM. Also, the Emax in [2] was 268%.
As for `N[C@@H](Cc1c[nH]cn1)C(=O)NCc1ccc2ccccc2c1`, in series [1] (read-out: EC50), the EC50 turned out to be 4.4 µM. The same compound had a maximal effect (Emax) in series [2] of 211%.
As to `N[C@@H](Cc1c[nH]cn1)C(=S)NCc1cccc2ccccc12`, the EC50 in series [1] (read-out: EC50) came to 3.4 µM. The same compound showed a maximal effect (Emax) in [2] of 279%.
Regarding `N[C@@H](Cc1c[nH]cn1)C(=O)N[C@@H](Cc1ccccc1)C(=O)NCc1cccc2ccccc12`, the EC50 result in series [1] is reported as “Not Active”.
For the compound `N[C@@H](Cc1c[nH]cn1)c1ncc(-c2ccc(Cl)cc2)[nH]1`, the half-maximal effective concentration (EC50) in series [1] (read-out: EC50) turned out to be 2.9 µM. The Emax in series [2] came out at 318%.
On the same counts, the results for `N[C@H](Cc1c[nH]cn1)C(=O)N1CCC(Cc2ccccc2F)CC1` are 5.4 µM and 272%.
With `N[C@@H](Cc1c[nH]cn1)C(=O)NCCc1ccc(F)cc1`, in series [1] (read-out: EC50), the EC50 came to 11.6 µM.
Regarding `N[C@@H](Cc1c[nH]cn1)C(=O)N1CCC(Cc2ccccc2F)CC1`, in series [1] (read-out: EC50), the EC50 was found to be 4.3 µM. In series [2], this compound gave a maximal effect (Emax) of 237%.
On to `N[C@@H](Cc1c[nH]cn1)C(=O)N[C@@H](Cc1ccccc1)C(=O)O` (H-His-Phe-OH), for which the EC50 in [1] (read-out: EC50) was found to be 85.5 µM. For the same compound, the half-life at 500 ng/ml in [6] is 0.57 h. Besides, in series [3], the Papp at 10 ug/ml is 1.17 ×10⁻⁶ cm/s.
On to `N[C@H](Cc1c[nH]cn1)c1ncc(-c2ccc3ccccc3c2)[nH]1`, for which the concentration giving a half-maximal response (EC50) in series [1] (read-out: EC50) was determined as 6.8 µM. In addition, in series [2], the maximum response (Emax) was determined as 138%.
Turning to `CC(C)[C@H](NC(=O)[C@@H](N)Cc1c[nH]cn1)C(=O)NCc1cccc2ccccc12`, the EC50 result in [1] is listed as “Not Active”.
For the compound `N[C@@H](Cc1c[nH]cn1)C(=O)NCC(=O)c1ccc2ccccc2c1`, in series [1], the half-maximal effective concentration (EC50) result is on record as “Not Active”.
`N[C@@H](Cc1c[nH]cn1)C(=O)NCc1cccc2ccccc12`: the results for the half-life at 500 ng/ml in [6] and in [7] were > 16.7 h and 1.34 h, respectively. Moreover, in [3], the Papp at 10 ug/ml is 18.3 ×10⁻⁶ cm/s. In [2], this compound returned an Emax of 264%.
In the case of `N[C@@H](Cc1c[nH]cn1)c1ncc(-c2cccc3ccccc23)[nH]1`, in series [1] (read-out: EC50), the concentration for a half-maximal effect (EC50) stood at 4.1 µM. Further, the half-life at 500 ng/ml was > 16.7 h in series [6] and 1.77 h in [7]. Also, the Papp at 10 ug/ml in series [3] was 13.8 ×10⁻⁶ cm/s. Further, in [2], the Emax is 244%. Also, the inhibition in [12], in series [13], in [14] and in [15] was 20% in each case.
